Laboratory results: ChEMBL document CHEMBL4376802, “State of the Art in Respiratory Syncytial Virus Drug Discovery and Development” (J Med Chem, 2019)

Experiments:
[1] = test system: Respiratory syncytial virus; assay: Antiviral activity against Respiratory syncytial virus by CPE reduction assay; type: functional, organism-based; details: human respiratory syncytial virus
[2] = test system: Respiratory syncytial virus; assay: Antiviral activity against recombinant RSV infected in HeLa cells assessed as reduction in eGFP expression after 3 days by laser microscopic analysis; type: functional, organism-based; details: human respiratory syncytial virus, 72 h
[3] = Antiviral activity against RSV B infected in HeLa cells; type: functional, cell-based; details: human respiratory syncytial virus
Human orthopneumovirus [4] = assay: Antiviral activity against RSV A infected in HeLa cells; type: functional, organism-based; details: human respiratory syncytial virus, type A
[5] = Plasma clearance in Beagle dog at 2 mg/ml, iv or 1.2 mg/ml, po measured up to 24 hrs by LC-MS/MS analysis; type: ADME, organism-based, Canis lupus familiaris
Human orthopneumovirus [6] = assay: Antiviral activity against RSV A2 infected in HAE-derived cells; type: functional, organism-based; details: human respiratory syncytial virus
Human orthopneumovirus [7] = assay: Antiviral activity against RSV A2 infected in A549 cells incubated for 3 days by cell titer glo-based luminescence assay; type: functional, organism-based; details: human respiratory syncytial virus, A2, A549, 72 h
[8] = test system: Respiratory syncytial virus; assay: Antiviral activity against Respiratory syncytial virus; type: functional, organism-based; details: human respiratory syncytial virus
Hepatitis C virus = assay: Antiviral activity against Hepatitis C virus; type: functional, organism-based, Hepacivirus hominis
Human respirovirus 3 = assay: Antiviral activity against Human parainfluenza virus 3; type: functional, organism-based
Human orthopneumovirus [9] = assay: Antiviral activity against RSV type B; type: functional, organism-based; details: human respiratory syncytial virus
Influenza A virus = assay: Antiviral activity against influenza A virus; type: functional, organism-based
Human orthopneumovirus [10] = assay: Antiviral activity against RSV type A; type: functional, organism-based; details: human respiratory syncytial virus
Human orthopneumovirus [11] = assay: Antiviral activity against Respiratory syncytial virus A plaque reduction assay; type: functional, organism-based
[12] = Antiviral activity against Respiratory syncytial virus B plaque reduction assay; type: functional, Human respiratory syncytial virus B
[13] = Oral bioavailability in mouse; type: ADME, organism-based; details: in vivo
[14] = Oral bioavailability in dog; type: ADME, organism-based, Canis lupus familiaris; details: in vivo
[15] = Oral bioavailability in BALB/c mouse; type: ADME, organism-based; details: in vivo
[16] = Antiviral activity against RSV B-WST infected in Hep2 cells CPE reduction assay; type: functional, cell-based; details: human respiratory syncytial virus, HEp-2
Human orthopneumovirus [17] = assay: Antiviral activity against RSV A2 infected in Hep2 cells by CPE reduction assay; type: functional, organism-based; details: human respiratory syncytial virus, A2, HEp-2
[18] = Antiviral activity against RSV type A 689 infected in Hep2 cells assessed as reduction in virus-induced cytopathic effect after 5 days by resazurin dye based PCR analysis; type: functional, cell-based; details: human respiratory syncytial virus, 689, HEp-2, 120 h
Human orthopneumovirus [19] = assay: Antiviral activity against RSV A2 infected in Hep2 cells assessed as reduction in virus-induced cytopathic effect after 5 days by resazurin dye based PCR analysis; type: functional, organism-based; details: human respiratory syncytial virus, A2, HEp-2, 120 h
[20] = Antiviral activity against RSV type A 1211 infected in Hep2 cells assessed as reduction in virus-induced cytopathic effect after 5 days by resazurin dye based PCR analysis; type: functional, cell-based; details: human respiratory syncytial virus, 1211, HEp-2, 120 h
[21] = Antiviral activity against RSV type A 492 infected in Hep2 cells assessed as reduction in virus-induced cytopathic effect after 5 days by resazurin dye based PCR analysis; type: functional, cell-based; details: human respiratory syncytial virus, 492, HEp-2, 120 h
[22] = Antiviral activity against RSV B-WST infected in Hep2 cells assessed as reduction in virus-induced cytopathic effect after 6 days by resazurin dye based PCR analysis; type: functional, cell-based; details: human respiratory syncytial virus, HEp-2, 144 h
[23] = Antiviral activity against RSV type A VAN1160 infected in Hep2 cells assessed as reduction in virus-induced cytopathic effect after 5 days by resazurin dye based PCR analysis; type: functional, cell-based; details: human respiratory syncytial virus, VAN1160, HEp-2, 120 h
[24] = Antiviral activity against RSV type B 1276 infected in Hep2 cells assessed as reduction in virus-induced cytopathic effect after 5 days by resazurin dye based PCR analysis; type: functional; details: human respiratory syncytial virus, 1276, HEp-2, 120 h; pooled result: one value given for 5 cell lines, strains, targets or settings
[25] = Antiviral activity against RSV type A Memphis 37 infected in Hep2 cells assessed as reduction in virus-induced cytopathic effect after 5 days by resazurin dye based PCR analysis; type: functional, cell-based; details: human respiratory syncytial virus, Memphis 37, HEp-2, 120 h
Human orthopneumovirus [26] = assay: Antiviral activity against RSV A2 infected in Hep2 cells preincubated for 1 hr followed by RSV infection and measured after 3 days by ELISA method; type: functional, organism-based; details: human respiratory syncytial virus, A2, HEp-2
[27] = Antiviral activity against RSV B-WST infected in Hep2 cells preincubated for 1 hr followed by RSV infection and measured after 3 days by ELISA method; type: functional, cell-based; details: human respiratory syncytial virus, HEp-2
Human orthopneumovirus [28] = assay: Antiviral activity against HRSV expressing m-cherry infected in Hep2 cells after 48 hrs post infection by fluorescence based assay; type: functional, organism-based; details: human respiratory syncytial virus, HEp-2, 48 h
[29] = Inhibition of Respiratory syncytial virus RNA-dependent RNA polymerase
[30] = Oral bioavailability in rat; type: ADME, organism-based; details: in vivo

## O=C1N(Cc2nc3cc(Cl)ccc3n2C2CCS(=O)(=O)C2)c2cnccc2C12CC2 (configuration not stated)
[1]
  EC50: 1.9 nM

## CS(=O)(=O)CCCn1c(Cn2c(=O)n(CC(F)(F)F)c3ccncc32)cc2cc(Cl)ccc21 [RILEMATOVIR]
[2]
  EC50: 0.46 to 0.5 nM
[3]
  EC50: 0.2 to 20 nM
Human orthopneumovirus [4]
  EC50: 0.2 to 20 nM
[5]
  clearance: 9 mL/min/kg

## CNc1nc(N)nc2c1ncn2[C@@H]1O[C@](C)(CO[P@@](=O)(N[C@@H](C)C(=O)OC(C)C)Oc2ccccc2)[C@@H](O)[C@H]1F
Human orthopneumovirus [6]
  EC50: 0.052 nM

## NC1CCN(c2ncc(CN3C(=O)C4(CC4)c4ccc(F)cc43)c(NCCCO)n2)C1 (configuration not stated)
Human orthopneumovirus [7]
  EC50: 34 nM

## CCc1ccc(NS(C)(=O)=O)c(C(=O)N(C)[C@@H](CC)c2cc3nc(N4CC[C@H](N)C4)c(C)cn3n2)c1
[8]
  EC50: 0.15 nM

## CC(C)CCn1c(CN2C(=O)C3(CC3)c3ccccc32)nc2cc(CN)ccc21
[8]
  EC50: 31 nM

## Nc1ccn([C@@H]2O[C@@](CO)(CCl)[C@@H](O)[C@H]2F)c(=O)n1 [ALS-8112]
Hepatitis C virus
  EC50: > 100000 nM
Human respirovirus 3
  EC50: 1300 nM
Human orthopneumovirus [9]
  EC50: 90 to 450 nM
Influenza A virus
  EC50: > 100000 nM
Human orthopneumovirus [10]
  EC50: 90 to 450 nM

## NCc1ccc2c(c1)nc(CN1C(=O)C3(CC3)c3ccc(F)cc31)n2CCCC(F)(F)F [SISUNATOVIR]
Human orthopneumovirus [11]
  EC50: 0.1 to 1.4 nM
[12]
  EC50: 0.1 to 1.4 nM
[13]
  bioavailability: 46%
[14]
  bioavailability: 63%

## CC(C)OC(=O)N1CCC2(CC1)C(=O)N(Cc1nc3cc(Cl)ccc3n1CCCC#N)c1cnccc12
[1]
  EC50: 0.024 nM

## CC(C)OC(=O)N1CC2(C1)C(=O)N(Cc1nc3cc(Br)ccc3n1CCCO)c1ccccc12
[1]
  EC50: 0.8 nM
[15]
  bioavailability: 72%

## Cc1cccc(-c2ccc([C@@H]3[C@@H](CO)N4CCCCN(S(=O)(=O)c5cn(C)cn5)C[C@@H]34)cc2)c1
[16]
  EC50: > 50000 nM
Human orthopneumovirus [17]
  EC50: 3300 nM

## O=c1n(Cc2cc3cnccc3n2CCCC(F)(F)F)c2cnccc2n1CC(F)(F)F
[2]
  EC50: 0.25 nM

## Cc1cc2n(Cc3nc(OCC4CCOC4)c4cc(C#N)ccc4n3)c(=O)c3ccccc3n2n1 (configuration not stated)
[1]
  EC50: 2.8 nM

## CC(C)CCn1c(Cn2c(=O)n(C3CCN(S(C)(=O)=O)CC3)c3ccccc32)nc(=O)c2ccccc21
[1]
  EC50: 5.8 nM

## O=c1n(Cc2cc3cc(Cl)ccc3n2CCCCO)c2cnccc2n1C1CC1
[2]
  EC50: 2 nM

## Cc1cnc(N2CC3(CCOCC3)C2)c(C(=O)Nc2ccc(C(=O)N3CCc4cc(C(=O)Nc5c(C)cccc5F)sc4-c4ccccc43)cc2)c1 [PC-786]
[18]
  EC50: 0.46 nM
Human orthopneumovirus [19]
  EC50: 0.5 nM
[20]
  EC50: 0.46 nM
[21]
  EC50: 0.46 nM
[22]
  EC50: 27.3 nM
[23]
  EC50: 0.46 nM
[24]
  EC50: 20.2 nM
[25]
  EC50: 0.46 nM

## Cc1cccc2ncnc(N3CCCC[C@H]3c3cc4nc(N5CCC5)cc(N5CCOCC5)n4n3)c12
[8]
  EC50: 10 nM

## O=C(NC1CC1)c1cc2c(s1)-c1ccccc1N(C(=O)c1ccc(NC(=O)c3cccnc3N3CCC4(CC3)COC4)cc1)CC2
Human orthopneumovirus [26]
  EC50: 10 nM
[27]
  EC50: > 50000 nM

## O=C(O)c1cc(C(=O)O)n(Cc2ccc(Cl)cc2Cl)n1
Human orthopneumovirus [28]
  EC50: 122000 nM

## Cc1cn(Cc2nc3ccccc3s2)c(=O)n(Cc2ccc(-c3csnn3)cc2)c1=O
[16]
  EC50: > 50000 nM
Human orthopneumovirus [17]
  EC50: 1600 nM

## COc1cc(C(=O)NC[C@@](O)(c2cc3c(c(-c4ccc(F)cc4)n2)NC[C@@]3(C)N)C(F)(F)F)ccc1OCCO
[29]
  IC50: < 1000 nM
[8]
  EC50: < 1000 nM

## O=C(NC1CC1)c1cc2c(s1)-c1ccccc1N(C(=O)c1ccc(NC(=O)c3ccccc3-c3ccccc3)cc1)CC2
Human orthopneumovirus [26]
  EC50: 750 nM
[27]
  EC50: > 20000 nM

## CCc1cc(C(=O)N2CCc3sccc3[C@H]2C)nc2cc(-c3ccc(N4CC[C@H](C(=O)O)C4)cc3F)nn12
[8]
  EC50: 2.75 nM

## O=c1n(Cc2nc(-c3nccs3)cn2CCCCO)c2cnccc2n1C1CC1
Human orthopneumovirus [7]
  EC50: 58 nM

## Cc1ccc(NS(C)(=O)=O)c(C(=O)N2CCCC[C@H]2c2cc3nc4c(c(N5CCOCC5)n3n2)CCCC4)c1
[8]
  EC50: 0.56 nM

## N#Cc1ccc(-c2ccc3c(c2)[C@H]2[C@H](CCN2C(=O)c2ccccc2F)[C@H](CO)N3)cc1
[16]
  EC50: 6800 nM
Human orthopneumovirus [17]
  EC50: 1400 nM

## CC1(C(=O)N2CC3(C2)C(=O)N(Cc2nc4c(n2CCCC(F)(F)F)CCCC4)c2ccccc23)CC1
Human orthopneumovirus [7]
  EC50: < 100 nM

## Cc1ccc([C@]23Cn4cccc4C(=O)N2CCN3C(=O)c2conc2C)cn1
[30]
  bioavailability: 59%
Human orthopneumovirus [6]
  EC50: 8.4 nM
[14]
  bioavailability: 100%

## O=C1Nc2ccccc2C(c2ccccc2)=N[C@@H]1Nc1nnc(-c2ncc(C(F)(F)F)cc2N2CCOCC2)o1 [ZELICAPAVIR]
[8]
  EC50: < 400 nM

## c1coc(-c2nn3c(Cn4cnc5ccccc54)nnc3s2)c1
[8]
  EC50: 660 nM

## COC(=O)N1CC2(C1)C(=O)N(Cc1ncc3cc(C)ccc3c1-c1cncnc1)c1ccccc12
[1]
  EC50: 0.2 nM
